Experimental data from ChEMBL document CHEMBL1148809, “Biological evaluation, structure-activity relationships, and three-dimensional quantitative structure-activity relationship studies of dihydro-beta-agarofuran sesquiterpenes as modulators of P-glycoprotein-dependent multidrug resistance” (J Med Chem, 2007).

Tests used:
[1] = molecular target: ATP-dependent translocase ABCB1 (Homo sapiens, UniProt P08183); test: (§1) Inhibition of human Pgp-mediated DNR transport in NIH3T3 cells by microplate assay; assay type: cell-based, Mus musculus
Chain of ATP-dependent translocase ABCB1 (P08183 whole entry): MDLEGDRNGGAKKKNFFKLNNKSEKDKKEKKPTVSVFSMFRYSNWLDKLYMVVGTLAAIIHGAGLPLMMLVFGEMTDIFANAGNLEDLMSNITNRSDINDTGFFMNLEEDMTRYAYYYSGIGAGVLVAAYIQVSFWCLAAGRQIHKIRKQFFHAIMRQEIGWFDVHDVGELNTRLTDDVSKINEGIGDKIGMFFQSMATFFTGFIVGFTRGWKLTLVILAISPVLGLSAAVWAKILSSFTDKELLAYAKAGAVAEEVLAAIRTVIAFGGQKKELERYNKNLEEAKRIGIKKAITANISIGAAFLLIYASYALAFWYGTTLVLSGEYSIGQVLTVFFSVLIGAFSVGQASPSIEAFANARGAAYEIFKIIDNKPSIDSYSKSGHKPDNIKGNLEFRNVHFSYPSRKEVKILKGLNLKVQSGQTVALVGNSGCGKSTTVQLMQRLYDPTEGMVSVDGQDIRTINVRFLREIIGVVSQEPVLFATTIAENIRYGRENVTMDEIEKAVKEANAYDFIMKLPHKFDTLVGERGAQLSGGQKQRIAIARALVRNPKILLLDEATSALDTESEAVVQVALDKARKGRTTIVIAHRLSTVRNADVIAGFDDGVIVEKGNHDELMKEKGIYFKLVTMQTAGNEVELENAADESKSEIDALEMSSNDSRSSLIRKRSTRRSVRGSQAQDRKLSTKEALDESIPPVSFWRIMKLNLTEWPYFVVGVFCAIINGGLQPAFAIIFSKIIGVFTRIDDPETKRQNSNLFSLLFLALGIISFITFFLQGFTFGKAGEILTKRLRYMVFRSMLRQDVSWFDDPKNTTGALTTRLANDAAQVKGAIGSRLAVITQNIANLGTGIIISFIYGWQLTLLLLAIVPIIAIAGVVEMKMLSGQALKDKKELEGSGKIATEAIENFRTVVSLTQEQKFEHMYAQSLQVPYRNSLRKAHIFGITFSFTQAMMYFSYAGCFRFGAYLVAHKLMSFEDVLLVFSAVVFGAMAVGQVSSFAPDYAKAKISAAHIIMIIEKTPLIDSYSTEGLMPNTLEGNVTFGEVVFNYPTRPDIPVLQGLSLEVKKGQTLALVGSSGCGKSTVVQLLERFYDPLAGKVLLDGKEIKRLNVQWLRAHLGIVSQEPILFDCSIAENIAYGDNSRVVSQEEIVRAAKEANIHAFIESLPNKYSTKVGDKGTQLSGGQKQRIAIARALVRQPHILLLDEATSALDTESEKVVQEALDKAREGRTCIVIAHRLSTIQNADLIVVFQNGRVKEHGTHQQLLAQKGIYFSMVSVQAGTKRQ

P-gp (ABCB1) = P-gp (ABCB1) (Homo sapiens, UniProt P08183); test: as §1; assay type: cell-based, Mus musculus; details: mouse, NIH3T3 cells expressing human P-gp, probe DNR; read-out: Imax
Chain of P-gp (ABCB1) (P08183 whole entry): as above

[2] = Partition coefficient, log P of the compound; assay type: physicochemical; details: octanol/water

CC(=O)OC[C@]12[C@H](OC(C)=O)C(=O)[C@@H]3[C@@H](OC(C)=O)[C@]1(OC3(C)C)[C@](C)(O)[C@@H](OC(C)=O)[C@H](OC(C)=O)[C@@H]2OC(=O)c1ccccc1
Ki ([1]; read-out: Ki): 6520 nM | Ki ([1]; read-out: Log Ki (converted)): 302 nM | Emax (P-gp (ABCB1)): 53.9% | logP ([2]; read-out: LogP): 6

CC(=O)O[C@@H]1[C@H](O)[C@@H](C)[C@@]23C[C@@H](C[C@H](OC(=O)/C=C/c4ccccc4)[C@]2(C)[C@H]1OC(=O)c1ccccc1)C(C)(C)O3
Ki ([1]; read-out: Ki): 8460 nM | Emax (P-gp (ABCB1)): 82.9% | logP ([2]; read-out: LogP): 6.3

CC(=O)OC[C@]12[C@H](OC(=O)c3ccccc3)C(=O)[C@@H]3[C@@H](O)[C@]1(OC3(C)C)[C@](C)(O)C[C@H](OC(C)=O)[C@@H]2OC(=O)c1ccccc1
Ki ([1]; read-out: Ki): 3970 nM | Emax (P-gp (ABCB1)): 74.4% | logP ([2]; read-out: LogP): 7.2

CC(=O)OC[C@]12[C@@H](OC(=O)c3ccccc3)C[C@@H]3[C@@H](OC(=O)c4ccccc4)[C@]1(OC3(C)C)[C@](C)(O)C[C@H](OC(C)=O)[C@@H]2OC(C)=O
Ki ([1]; read-out: Ki): 1500 nM | Emax (P-gp (ABCB1)): 100% | logP ([2]; read-out: LogP): 7.3

CC(=O)O[C@@H]1[C@H]2[C@H](O)[C@H](OC(=O)c3ccccc3)[C@]3(C)[C@@H](OC(=O)c4ccccc4)[C@@H](OC(=O)c4ccccc4)C[C@@](C)(O)[C@@]13OC2(C)C
Ki ([1]; read-out: Ki): 1210 nM | Emax (P-gp (ABCB1)): 100% | logP ([2]; read-out: LogP): 8.4

CCCCCO[C@H]1[C@@H](OC(=O)c2ccco2)C[C@@](C)(O)[C@]23OC(C)(C)[C@H](C[C@H](OC(=O)c4ccco4)[C@]12COC(C)=O)[C@H]3OC(C)=O
Ki ([1]; read-out: Ki): 1940 nM | Emax (P-gp (ABCB1)): 91.3% | logP ([2]; read-out: LogP): 6.9

CCCCCCCCCCCC(=O)O[C@@H]1[C@H]2C[C@H](OC(=O)c3ccco3)[C@]3(C)[C@@H](OC(C)=O)[C@@H](OC(C)=O)C[C@@](C)(O)[C@@]13OC2(C)C
Ki ([1]; read-out: Ki): 800 nM | Emax (P-gp (ABCB1)): 72.7% | logP [2]: 9.1

CC(=O)O[C@H]1[C@@H](OC(=O)c2ccccc2)C[C@@](C)(O)[C@]23OC(C)(C)[C@H](C[C@H](OC(=O)c4ccco4)[C@]12C)[C@H]3O
Ki ([1]; read-out: Ki): 2500 nM | Emax (P-gp (ABCB1)): 68% | logP ([2]; read-out: LogP): 5.7

CC(=O)O[C@H]1[C@H](OC(=O)c2ccccc2)[C@@]2(C)[C@@H](OC(=O)c3ccccc3)[C@@H](OC(=O)c3ccccc3)[C@@H]3C[C@]2(OC3(C)C)[C@](C)(O)[C@H]1OC(C)=O
Ki ([1]; read-out: Ki): 730 nM | Emax (P-gp (ABCB1)): 98.7% | logP ([2]; read-out: LogP): 8.8

CC(=O)O[C@@H]1C[C@@](C)(O)[C@@]23C[C@@H](C[C@H](OC(=O)c4ccccc4)[C@]2(C)[C@H]1OC(=O)c1ccccc1)C(C)(C)O3
Ki ([1]; read-out: Ki): 7590 nM | Emax (P-gp (ABCB1)): 89.8% | logP ([2]; read-out: LogP): 6.6

CC(=O)OC[C@]12[C@H](OC(C)=O)[C@H](OC(C)=O)[C@@H]3[C@@H](OC(C)=O)[C@]1(O[C@@]3(C)COC(C)=O)[C@](C)(O)[C@@H](OC(C)=O)[C@H](OC(C)=O)[C@@H]2OC(C)=O
Ki ([1]; read-out: Ki): 6970 nM | Emax (P-gp (ABCB1)): 31% | logP ([2]; read-out: LogP): 3.6

CC(=O)O[C@H]1C[C@@](C)(O)[C@]23OC(C)(C)[C@H](C[C@H](OC(=O)c4ccco4)[C@]2(C)[C@H]1OC(C)=O)[C@H]3OC(=O)C(C)(C)C
Ki ([1]; read-out: Ki): 960 nM | Emax (P-gp (ABCB1)): 75.2% | logP ([2]; read-out: LogP): 5

CC(=O)OC[C@]12[C@@H](OC(=O)c3ccccc3)C[C@@H]3[C@@H](OC(C)=O)[C@]1(OC3(C)C)[C@H](C)C[C@H](OC(C)=O)[C@@H]2OC(C)=O
Ki ([1]; read-out: Ki): 2360 nM | Emax (P-gp (ABCB1)): 80.8% | logP ([2]; read-out: LogP): 5.7

CC(=O)O[C@H]1C[C@@](C)(O)[C@]23OC(C)(C)[C@H](C[C@H](OC(=O)c4ccco4)[C@]2(C)[C@H]1OC(C)=O)[C@H]3OC(=O)C(F)(F)F
Ki ([1]; read-out: Ki): 12100 nM | Emax (P-gp (ABCB1)): 34% | logP ([2]; read-out: LogP): 4.1

CC(=O)OC[C@]12[C@H](OC(=O)c3ccccc3)C(=O)[C@@H]3[C@@H](OC(C)=O)[C@]1(OC3(C)C)[C@](C)(O)C[C@H](OC(C)=O)[C@@H]2OC(=O)c1ccccc1
Ki ([1]; read-out: Ki): 3010 nM | Emax (P-gp (ABCB1)): 81.1% | logP ([2]; read-out: LogP): 7.7

CC(=O)OC[C@]12[C@H](OC(C)=O)C(=O)[C@@H]3[C@@H](OC(C)=O)[C@]1(OC3(C)C)[C@H](C)C[C@H](OC(C)=O)[C@@H]2OC(C)=O
Ki ([1]; read-out: Ki): 9830 nM | Emax (P-gp (ABCB1)): 100% | logP ([2]; read-out: LogP): 4

CC(=O)O[C@H]1[C@@H](O)[C@H](OC(=O)c2ccccc2)[C@@]2(C)[C@@H](OC(=O)/C=C/c3ccccc3)C[C@@H]3C[C@]2(OC3(C)C)[C@@H]1C
Ki ([1]; read-out: Ki): 4250 nM | Emax (P-gp (ABCB1)): 63.7% | logP ([2]; read-out: LogP): 6.2

CC(=O)OC[C@]12[C@H](OC(=O)c3ccccc3)C(=O)[C@@H]3[C@@H](OC(C)=O)[C@]1(OC3(C)C)[C@](C)(O)C[C@H](OC(=O)c1ccccc1)[C@@H]2OC(=O)c1ccccc1
Ki ([1]; read-out: Ki): 1030 nM | Emax (P-gp (ABCB1)): 80% | logP [2]: 10

CC(=O)O[C@H]1C[C@@](C)(O)[C@]23OC(C)(C)[C@H](C[C@H](OC(=O)c4ccco4)[C@]2(C)[C@H]1OC(C)=O)[C@H]3OC(=O)c1ccco1
Ki ([1]; read-out: Ki): 2910 nM | Emax (P-gp (ABCB1)): 95.7% | logP ([2]; read-out: LogP): 5.1

CC(=O)O[C@H]1CC[C@@](C)(O)[C@]23OC(C)(C)[C@H](C[C@H](OC(=O)c4ccco4)[C@]12C)[C@H]3OC(=O)c1ccco1
Ki ([1]; read-out: Ki): 6610 nM | Emax (P-gp (ABCB1)): 96.3% | logP ([2]; read-out: LogP): 5.3

CCCCCCCCCCCC(=O)O[C@@H]1[C@H]2C[C@H](OC(=O)c3ccco3)[C@]3(C)[C@@H](OC(C)=O)[C@@H](OC(=O)c4ccccc4)C[C@@](C)(O)[C@@]13OC2(C)C
Ki ([1]; read-out: Ki): 5160 nM | Emax (P-gp (ABCB1)): 29.2% | logP [2]: 11.4

CC(=O)O[C@H]1[C@@H](OC(=O)c2ccccc2)C[C@@](C)(O)[C@]23OC(C)(C)[C@H](C[C@H](OC(=O)c4ccco4)[C@]12C)[C@H]3OC(=O)C(C)(C)C
Ki ([1]; read-out: Ki): 1040 nM | Emax (P-gp (ABCB1)): 90% | logP ([2]; read-out: LogP): 7.3

CC(=O)O[C@H]1C[C@@](C)(O)[C@]23OC(C)(C)[C@H](C[C@H](OC(=O)c4ccco4)[C@]2(C)[C@H]1OC(C)=O)[C@H]3OC(=O)c1cccc2ccccc12
Ki ([1]; read-out: Ki): 1650 nM | Emax (P-gp (ABCB1)): 91.1% | logP ([2]; read-out: LogP): 7.3

CC(=O)OC[C@]12[C@@H](OC(=O)c3ccccc3)C[C@@H]3[C@@H](OC(=O)c4ccccc4)[C@]1(OC3(C)C)[C@H](C)C[C@H](OC(=O)c1cccnc1)[C@@H]2OC(C)=O
Ki ([1]; read-out: Ki): 710 nM | Emax (P-gp (ABCB1)): 85.8% | logP ([2]; read-out: LogP): 8.4

CC(=O)O[C@H]1[C@@H](OC(=O)c2ccccc2)C[C@@](C)(O)[C@]23OC(C)(C)[C@H](C[C@H](OC(=O)c4ccco4)[C@]12C)[C@H]3OC(=O)c1cccc2ccccc12
Ki ([1]; read-out: Ki): 4590 nM | Emax (P-gp (ABCB1)): 54.8% | logP [2]: 9.6

CC(=O)O[C@H]1[C@@H](OC(=O)c2ccco2)C[C@@](C)(O)[C@]23OC(C)(C)[C@H](C[C@H](OC(=O)c4ccco4)[C@]12C)[C@H]3O
Ki ([1]; read-out: Ki): 5530 nM | Emax (P-gp (ABCB1)): 41.2% | logP ([2]; read-out: LogP): 4.7

CC(=O)O[C@H]1[C@@H]2[C@@H](OC(C)=O)[C@@]3(OC2(C)C)[C@](C)([C@H]1OC(=O)c1ccccc1)[C@@H](OC(=O)c1ccccc1)[C@@H](OC(=O)c1ccccc1)C[C@@]3(C)O
Ki ([1]; read-out: Ki): 11300 nM | Emax (P-gp (ABCB1)): 80.7% | logP [2]: 9.4

CC(=O)OC[C@]12[C@@H](OC(=O)c3ccccc3)[C@@H](OC(=O)c3ccccc3)[C@@H]3[C@@H](OC(C)=O)[C@]1(OC3(C)C)[C@](C)(O)C[C@H](OC(C)=O)[C@@H]2OC(C)=O
Ki ([1]; read-out: Ki): 1740 nM | Emax (P-gp (ABCB1)): 97% | logP ([2]; read-out: LogP): 7.6

CC(=O)O[C@H]1[C@H](OC(=O)c2cccnc2)[C@@]2(C)[C@@H](OC(=O)c3ccccc3)[C@@H](OC(=O)c3ccccc3)[C@@H]3C[C@]2(OC3(C)C)[C@](C)(O)[C@H]1OC(C)=O
Ki ([1]; read-out: Ki): 1450 nM | Emax (P-gp (ABCB1)): 100% | logP ([2]; read-out: LogP): 7.5

CC(=O)O[C@@H]1C[C@@](C)(O)[C@@]23C[C@@H](C[C@H](OC(=O)/C=C/c4ccccc4)[C@]2(C)[C@H]1OC(=O)c1ccccc1)C(C)(C)O3
Ki ([1]; read-out: Ki): 7610 nM | Emax (P-gp (ABCB1)): 100% | logP ([2]; read-out: LogP): 6.5

CC(=O)O[C@H]1C[C@@](C)(O)[C@]23OC(C)(C)[C@H](C[C@H](OC(=O)c4ccco4)[C@]2(C)[C@H]1OC(=O)c1ccccc1)[C@H]3OC(=O)c1ccco1
Ki ([1]; read-out: Ki): 3450 nM | Emax (P-gp (ABCB1)): 45.3% | logP ([2]; read-out: LogP): 7.2

CCCCCO[C@H]1C[C@@](C)(O)[C@]23OC(C)(C)[C@H](C[C@H](OC(=O)c4ccco4)[C@]2(C)[C@H]1OC(C)=O)[C@H]3OC(=O)c1ccco1
Ki ([1]; read-out: Ki): 570 nM | Emax (P-gp (ABCB1)): 95.5% | logP ([2]; read-out: LogP): 6.6

C[C@@H]1[C@@H](O)[C@@H](O)[C@H](OC(=O)c2ccccc2)[C@@]2(C)[C@@H](OC(=O)/C=C/c3ccccc3)C[C@@H]3C[C@]12OC3(C)C
Ki ([1]; read-out: Ki): 6940 nM | Emax (P-gp (ABCB1)): 76.6% | logP ([2]; read-out: LogP): 6

CC(=O)OC[C@]12[C@@H](OC(=O)c3ccccc3)C[C@@H]3[C@@H](OC(C)=O)[C@]1(OC3(C)C)[C@H](C)C[C@H](OC(=O)c1ccccc1)[C@@H]2OC(C)=O
Ki ([1]; read-out: Ki): 630 nM | Emax (P-gp (ABCB1)): 88% | logP ([2]; read-out: LogP): 7.7
